Assay results: patent US11135207B2, “Inhibitors of dihydroceramide desaturase for treating disease” (Centaurus Therapeutics, priority 2016, dated 2021)
Several values for one entry are separate records, joined by “and”; a condition that tells them apart may be missing. Equal values may be shown once. Read-outs that look alike come from different tables or passages of the source.

Target: Des1 (Homo sapiens (Human), UniProt O15121)
Experiment: Jurkat T cell measurement of conversion of dihydroceramide to ceramide
Format: cell-based
Conditions: for inhibition at 10 µM: read-out: Des1 % Inhib (10 μM); for IC50: read-out: Des1 IC50; for inhibition at 1 µM: read-out: Des1 % Inhib (1 μM); for inhibition at 0.5 µM: read-out: Des1 % Inhib (0.5 μM)
Experimental: Jurkat T Cell Measurement of Conversion of Dihydroceramide to Ceramide
Jurkat clone E6-1 cells were grown and then seeded at 10^6 cells/mL in a 96-well plate (400 μL in each well. The cells were administered 100 μL of cell culture media containing 50-μM NBD-C6-dihydroceramide (Des1 substrate), affording a final concentration of substrate of 10 μM. The cells were incubated with substrate at 4° C. for 30 minutes. Following the incubation at 4° C., the cell suspension was centrifuged at 1200 rpm for 3 minutes, and the cell pellet is resuspended in 400 μL of fresh media containing various concentrations of either fenretinide (known Des1 inhibitor control compound) or test article. The final concentrations of control compound and test compounds were tested in a range from 0-10 μM. The cells and compounds were incubated at 37° C. for 3 hours. Following the 3-hour incubation, the plate was centrifuged at 2500 g for 3 minutes at 4° C., followed by collection and transfer of 200 μL of the supernatant to a new 96-well plate with 300 μL of methanol an containing appropriate internal standards for liquid chromatography/tandem mass spectroscopy (LC/MS/MS) analysis (internal standard: 500 nM labetalol and 100 nM alprazolam). The samples were vortexed for 2 minutes followed by centrifugation at 3,220 g for 20 minutes. Following centrifugation, 200 μL of the supernatant was transferred to a new 96-well plate for LC-MS/MS analysis to determine the amount of NBD-C6-ceramide (Des1 product) produced. The assay was typically performed in duplicate. A reduction of at least 30% compared to vehicle control (0 μM test article) is indicative of an active compound, and a reduction of 75% compared to vehicle control is preferred.

[1] = 10 μM compound, Jurkat clone E6-1 cells, NBD-C6-dihydroceramide substrate
[2] = Jurkat clone E6-1 cells, NBD-C6-dihydroceramide substrate
[3] = 1 μM compound, Jurkat clone E6-1 cells
[4] = 0.5 μM compound, Jurkat clone E6-1 cells

Sequence of Des1 (O15121 whole entry): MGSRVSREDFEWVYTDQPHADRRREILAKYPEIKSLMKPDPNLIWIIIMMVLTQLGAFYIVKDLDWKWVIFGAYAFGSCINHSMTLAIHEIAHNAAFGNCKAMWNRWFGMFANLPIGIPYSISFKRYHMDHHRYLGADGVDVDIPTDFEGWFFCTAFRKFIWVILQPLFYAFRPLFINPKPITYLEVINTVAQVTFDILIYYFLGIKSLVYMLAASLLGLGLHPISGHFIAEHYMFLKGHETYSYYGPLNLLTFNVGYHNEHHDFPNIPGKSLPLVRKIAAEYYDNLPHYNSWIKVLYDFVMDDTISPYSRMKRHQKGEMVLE

Row | SMILES | IC50 [2] | inhibition at 1 µM [3] | further results
1 | O=C(Nc1ccc(O)cc1)[C@@H]1C[C@H]1c1ccccc1 (relative stereo) [Example 6, (trans)-N-(4-hydroxyphenyl)-2-phenyl-cyclopropane-carboxamide] | 590 nM | – | inhibition at 10 µM [1]: 76%
2 | O=C(Nc1ccc(O)cc1)c1ccc2ccccc2c1 [Example 2, N-(4-hydroxy-phenyl)-2-naphthamide] | 840 nM | – | inhibition at 10 µM [1]: 78%
3 | C/C(=C\C(=O)Nc1ccc(O)cc1)c1ccccc1 [Example 3, (E)-N-(4-hydroxy-phenyl)-3-phenylbut-2-enamide] | 4460 nM | – | inhibition at 10 µM [1]: 49%
4 | O=C(/C=C/c1ccccc1)Nc1ccc(O)cc1 [Example 4, N-(4-hydroxy-phenyl)-cinnamide] | 440 nM | – | inhibition at 10 µM [1]: 85%
5 | O=C(Nc1ccc(O)cc1)c1ccc(-c2ccccc2)cc1 [Example 5, N-(4-hydroxy-phcnyl)-[1,1′-biphenyl]-4-carboxamide] | 50 nM | – | inhibition at 10 µM [1]: 88%
6 | O=C(Nc1ccc(O)cn1)c1ccc2ccccc2c1 [Example 7, N-(5-hydroxy-pyridin-2-yl)-2-naphth-amide] | 180 nM | 79.8% | –
7 | O=C(/C=C/c1ccccc1)Nc1ccc(O)cn1 [Example 8, N-(5-hydroxy-pyridin-2-yl)-cinnamide] | 60 nM | 85.9% | –
8 | O=C(Nc1ccc(O)cn1)c1ccc(-c2ccccc2)cc1 [Example 9, N-(5-hydroxy-pyridin-2-yl)-(1,1′-biphenyl)-4-carboxamide] | 10 nM and 26 nM | 93.3% | –
9 | O=C(Nc1ccc(O)cn1)[C@@H]1C[C@H]1c1ccccc1 [Example 10, (trans)-N-(5-hydroxy-pyridin-2-yl)-2-phenyl-cyclopropane-carboxamide] | 230 nM | 67.2% | –
10 | CC(C)=CC(=O)Nc1ccc(O)cc1 [Example 11, N-(4-hydroxy-phenyl)-3-methyl-2-butenamide] | > 10000 nM | – | inhibition at 10 µM [1]: 20%
11 | O=C(Nc1ccc(O)cc1)c1cccc2ccccc12 [Example 13, N-(4-hydroxy-phenyl)-1-napthamide] | 8200 nM | – | inhibition at 10 µM [1]: 38%
12 | O=C(Nc1ccc(O)cc1)c1ccc2[nH]ncc2c1 [Example 14, N-(4-hydroxy-phenyl)-1H-indazole-5-carboxamide] | > 10000 nM | – | inhibition at 10 µM [1]: 14.8%
13 | O=C(Nc1ccc(O)cc1)c1ccc(C2CCCCC2)cc1 [Example 15, N-(4-hydroxy-phenyl)-4-cyclohexyl-benzamide] | 90 nM | – | inhibition at 10 µM (Jurkat): 87%
14 | O=C(Nc1ccc(O)cc1)c1ccc(-c2ccc(O)cc2)cc1 [Example 16, N-(4-hydroxy-phenyl)-4′-hydroxy-biphenyl-4-carboxamide] | – | – | inhibition at 10 µM [1]: 54%
15 | O=C(Nc1ccc(O)cn1)c1cccc2ccccc12 [Example 19, N-(5-hydroxy-pyridin-2-yl)-1-napthamide] | – | 31% | –
16 | O=C(Nc1ccc(O)cn1)c1ccc(C2CCCCC2)cc1 [Example 20, N-(5-hydroxy-pyridin-2-yl)-4-cyclohexyl-benzamide] | 4 nM | – | inhibition at 1 µM (Jurkat): 95.9%
17 | O=C(Nc1ccc(O)cn1)c1ccc(-c2ccc(O)cc2)cc1 [Example 21, N-(5-hydroxy-pyridin-2-yl)-4′-hydroxy-biphenyl-4-carboxamide] | – | – | inhibition at 0.5 µM [4]: 62.8%
18 | COc1ccc(-c2ccc(C(=O)Nc3ccc(O)cn3)cc2)cc1 [Example 22, N-(5-hydroxy-pyridin-2-yl)-4′-methoxy-biphenyl-4-carboxamide] | 14 nM | 95.4% | –

Row | SMILES | IC50 [2] | inhibition at 1 µM [3] | further results
19 | N#Cc1ccc(-c2ccc(C(=O)Nc3ccc(O)cn3)cc2)cc1 [Example 23, N-(5-hydroxy-pyridin-2-yl)-4′-cyano-biphenyl-4-carboxamide] | 5 nM | 96.3% | –
20 | O=C(Nc1ccc(O)cn1)c1ccc(-c2ccc(Cl)cc2)cc1 [Example 24, N-(5-hydroxy-pyridin-2-yl)-4′-chloro-biphenyl-4-carboxamide] | 3 nM | 96.1% | –
21 | O=C(Nc1ccc(O)cn1)c1ccccc1 [Example 25, N-(5-hydroxy-pyridin-2-yl)-benzamide] | – | 4.44% | –
22 | COc1ccc(C(=O)Nc2ccc(O)cn2)cc1 [Example 26, N-(5-hydroxy-pyridin-2-yl)-4-methoxy-benzamide] | 240 nM | 74.5% | –
23 | CC(C)c1ccc(C(=O)Nc2ccc(O)cn2)cc1 [Example 27, N-(5-hydroxy-pyridin-2-yl)-4-isopropyl-benzamide] | 16 nM | – | –
24 | O=C(Nc1ccc(O)cn1)[C@H]1CC[C@H](c2ccccc2)CC1 [Example 28, (1r,4r)-N-(5-hydroxy-pyridin-2-yl)-4-phenyl-cyclohexane-1-carboxamide] | 5 nM | 96.2% | –
25 | CCCCCCCC(=O)Nc1ccc(O)cn1 [Example 29, N-(5-hydroxy-pyridin-2-yl)-octanamide] | 6 nM | 95.7% | –
26 | O=C(Nc1ccc(O)cn1)C1CCCCC1 [Example 30, N-(5-hydroxy-pyridin-2-yl)-cyclohexane-carboxamide] | – | – | inhibition at 0.5 µM [4]: 49.5%
27 | CC(C)CCCCCC(=O)Nc1ccc(O)cn1 [Example 31, N-(5-hydroxy-pyridin-2-yl)-7-methyloctan-amide] | 1 nM | – | inhibition at 0.5 µM (Jurkat): 91%
28 | O=C(Nc1ccc(O)cn1)[C@H]1CC[C@H](c2ccc(Cl)cc2)CC1 [Example 32, (1r,4r)-4-(4-chlorophenyl)-N-(5-hydroxy-pyridin-2-yl)-cyclohexane-1-carboxamide] | 1 nM | – | inhibition at 0.5 µM (Jurkat): 96.8%
29 | O=C(Nc1ccc(O)cn1)c1ccc(-c2ccccn2)cc1 [Example 33, N-(5-hydroxy-pyridin-2-yl)-4-(pyridin-2-yl)benzamide] | – | – | inhibition at 0.5 µM [4]: 71.1%
30 | O=C(Nc1ccc(O)cn1)c1ccc(-c2cccnc2)cc1 [Example 34, N-(5-hydroxy-pyridin-2-yl)-4-(pyridin-3-yl)benzamide] | – | – | inhibition at 0.5 µM [4]: 85.6%
31 | CC(C)(C)c1ccc(C(=O)Nc2ccc(O)cn2)cc1 [Example 35, 4-(tert-butyl)-N-(5-hydroxy-pyridin-2-yl)-benzamide] | 4 nM | 95.7% | inhibition at 0.5 µM [4]: 90%
32 | COCCCCCC(=O)Nc1ccc(O)cn1 [Example 36, N-(5-hydroxy-pyridin-2-yl)-6-methoxy-hexanamide] | – | – | inhibition at 0.5 µM [4]: 44.8%
33 | CC(C)OCCCCC(=O)Nc1ccc(O)cn1 [Example 37, N-(5-hydroxy-pyridin-2-yl)-5-isopropoxy-pentanamide] | 21 nM | – | inhibition at 0.5 µM [4]: 93.7%
34 | O=C(Nc1ccc(O)cn1)c1ccc(-c2ccccc2Cl)cc1 [Example 38, 2′-chloro-N-(5-hydroxy-pyridin-2-yl)-[1,1′-biphenyl]-4-carboxamide] | 19 nM | – | inhibition at 0.5 µM [4]: 95.4%
35 | O=C(Nc1ccc(O)cn1)c1ccc(-c2c(Cl)cccc2Cl)cc1 [Example 39, 2′,6′-dichloro-N-(5-hydroxy-pyridin-2-yI)-[1,1′-biphenyl]-4-carboxamide] | – | – | inhibition at 0.5 µM [4]: 65.9%
36 | CC(C)O[C@H]1CC[C@H](C(=O)Nc2ccc(O)cn2)CC1 [Example 40, (1r,4r)-N-(5-hydroxypyridin-2-yl)-4-iso-propoxycyclo-hexane-1-carboxamide] | 21 nM | – | inhibition at 0.5 µM [4]: 92.6%
